Assay results from the Deep4Chem optical property database.

Assay: photoluminescence quantum yield (fraction); solvent given as SMILES

**Q.** Which photoluminescence quantum yield (in C1CCCCC1) does the source give for `N#Cc1cc(C#N)c(-c2cc(-n3c4ccccc4c4ccccc43)cc(-n3c4ccccc4c4ccccc43)c2)cc1-c1cc(-n2c3ccccc3c3ccccc32)cc(-n2c3ccccc3c3ccccc32)c1` here?
**A.** 0.11

**Q.** Which photoluminescence quantum yield (in ClC(Cl)Cl) does the source give for `Cc1ccc2c(c1)c(C#N)c(C#N)c1cc(C)ccc12` here?
**A.** 0.15

**Q.** With `CCCCCCN1C(=O)c2cccc3c(-c4scc5c4OCCO5)ccc(c23)C1=O` as the molecule, how does the photoluminescence quantum yield (in ClC(Cl)Cl) read?
**A.** 0.61

**Q.** With `F[B-]1(F)N2C=CN=CC2=[N+]2[N+]1=Cc1c(-c3ccccc3)cc(-c3cccs3)n1[B-]2(F)F` as the molecule, how does the photoluminescence quantum yield (in ClCCl) read?
**A.** 0.45

**Q.** What does the source list for `CC(=O)Nc1ccc2c3cccc4cccc(c5cccc1c52)c43`?
**A.** photoluminescence quantum yield (in C1COCCO1): 0.56; photoluminescence quantum yield (in CC#N): 0.45; photoluminescence quantum yield (in CCCCOCCCC): 0.46; photoluminescence quantum yield (in CCOC(C)=O): 0.5

**Q.** With `COc1cccc(OC)c1-c1c2ccc(=[N+]3CCCCC3)cc-2oc2cc(N3CCCCC3)ccc12` as the molecule, how does the photoluminescence quantum yield (in ClCCl) read?
**A.** 0.86

**Q.** Which photoluminescence quantum yield (in CCO) does the source give for `O=CC1=C(c2ccc(-c3cccs3)s2)CC1` here?
**A.** 0.32

**Q.** Which photoluminescence quantum yield (in C1CCCCC1) does the source give for `CN(C)c1ccc(/C=C/c2nc3ccc(N(C)C)cc3oc2=O)cc1` here?
**A.** 0.57

**Q.** What about the photoluminescence quantum yield (in C1COCCO1) of the same molecule?
**A.** 0.59

**Q.** What about the photoluminescence quantum yield (in CC#N) of the same molecule?
**A.** 0.21

**Q.** And the photoluminescence quantum yield (in CC(C)=O)?
**A.** 0.36

**Q.** What about the photoluminescence quantum yield (in CC(O)CO) of the same molecule?
**A.** 0.024

**Q.** And the photoluminescence quantum yield (in CCCCCCC)?
**A.** 0.56

**Q.** What about the photoluminescence quantum yield (in CCO) of the same molecule?
**A.** 0.016

**Q.** And the photoluminescence quantum yield (in CCOC(C)=O)?
**A.** 0.52

**Q.** What about the photoluminescence quantum yield (in CN(C)C=O) of the same molecule?
**A.** 0.22

**Q.** And the photoluminescence quantum yield (in CS(C)=O)?
**A.** 0.04

**Q.** And the photoluminescence quantum yield (in Cc1ccccc1)?
**A.** 0.57

**Q.** And the photoluminescence quantum yield (in ClC(Cl)Cl)?
**A.** 0.52

**Q.** What about the photoluminescence quantum yield (in ClCCl) of the same molecule?
**A.** 0.55

**Q.** What about the photoluminescence quantum yield (in OCC(O)CO) of the same molecule?
**A.** 0.019

**Q.** With `C[Si]1(C)C2=CC(=[N+]3CCC3)C=C(F)C2=Nc2c(F)cc(N3CCC3)cc21` as the molecule, how does the photoluminescence quantum yield (in CCO) read?
**A.** 0.11

**Q.** Which photoluminescence quantum yield (in Cc1ccccc1) does the source give for `Cc1nnc(-c2cc(-n3c4ccccc4c4ccccc43)c(-n3c4ccccc4c4ccccc43)cc2-c2nnc(C)o2)o1` here?
**A.** 0.287

**Q.** With `COc1cc2c(cc1/C=C/C(=C(C#N)C#N)c1ccccc1)c1ccccc1n2C` as the molecule, how does the photoluminescence quantum yield (in C1CCOC1) read?
**A.** 0.008

**Q.** What about the photoluminescence quantum yield (in CC#N) of the same molecule?
**A.** 0.014

**Q.** What about the photoluminescence quantum yield (in CCO) of the same molecule?
**A.** 0.012

**Q.** What about the photoluminescence quantum yield (in CCOC(C)=O) of the same molecule?
**A.** 0.009

**Q.** And the photoluminescence quantum yield (in CN(C)C=O)?
**A.** 0.022

**Q.** What about the photoluminescence quantum yield (in CO) of the same molecule?
**A.** 0.012

**Q.** And the photoluminescence quantum yield (in CS(C)=O)?
**A.** 0.033

**Q.** What about the photoluminescence quantum yield (in Cc1ccccc1) of the same molecule?
**A.** 0.007

**Q.** And the photoluminescence quantum yield (in ClC(Cl)Cl)?
**A.** 0.018

**Q.** What about the photoluminescence quantum yield (in ClCCl) of the same molecule?
**A.** 0.022

**Q.** With `c1ccc(-c2nc3c(c4c2-c2ccccc2CC4)-c2ccccc2CC3)cc1` as the molecule, how does the photoluminescence quantum yield (in C1CCOC1) read?
**A.** 0.009

**Q.** What about the photoluminescence quantum yield (in CC#N) of the same molecule?
**A.** 0.001

**Q.** And the photoluminescence quantum yield (in CCCCCC)?
**A.** 0.001

**Q.** What about the photoluminescence quantum yield (in CCOC(C)=O) of the same molecule?
**A.** 0.03

**Q.** What about the photoluminescence quantum yield (in CO) of the same molecule?
**A.** 0.002

**Q.** What about the photoluminescence quantum yield (in CS(C)=O) of the same molecule?
**A.** 0.003

**Q.** And the photoluminescence quantum yield (in Cc1ccccc1)?
**A.** 0.002

**Q.** What about the photoluminescence quantum yield (in ClCCl) of the same molecule?
**A.** 0.01

**Q.** What does the source list for `N#Cc1c(-n2c3ccccc3c3ccccc32)c(F)c(-n2c3ccccc3c3ccccc32)c(F)c1-n1c2ccccc2c2ccccc21`?
**A.** photoluminescence quantum yield (in Cc1ccccc1): 0.76; photoluminescence quantum yield (in c1ccc([Si](c2ccccc2)(c2ccc(-n3c4ccccc4c4ccccc43)cc2)c2ccc(-n3c4ccccc4c4ccccc43)cc2)cc1): 0.74

**Q.** Which photoluminescence quantum yield (in CC#N) does the source give for `Cc1cccc(C)c1Nc1ccc(/C=C/c2ccccc2)cc1` here?
**A.** 0.04

**Q.** What about the photoluminescence quantum yield (in CCCCCC) of the same molecule?
**A.** 0.11

**Q.** With `CCOC(=O)COc1ccc(/C=C/C2=C3c4ccccc4C(c4[nH]c(C)cc4C)=[N+]3[B-](F)(F)n3c(C)cc(C)c32)cc1` as the molecule, how does the photoluminescence quantum yield (in C1CCOC1) read?
**A.** 0.012

**Q.** And the photoluminescence quantum yield (in CC#N)?
**A.** 0.005

**Q.** What about the photoluminescence quantum yield (in CCCCCC) of the same molecule?
**A.** 0.013

**Q.** What about the photoluminescence quantum yield (in CO) of the same molecule?
**A.** 0.002

**Q.** What about the photoluminescence quantum yield (in Cc1ccccc1) of the same molecule?
**A.** 0.012

**Q.** What about the photoluminescence quantum yield (in ClCCl) of the same molecule?
**A.** 0.014

**Q.** Which photoluminescence quantum yield (in C1CCOC1) does the source give for `Cc1ccc(-c2c3ccc([nH]3)c3nc(c(-c4ccc([N+](=O)[O-])cc4)c4ccc([nH]4)c4ccc([nH]4)c(-c4ccc(C)cc4)c4ccc2o4)C=C3)cc1` here?
**A.** 0.018

**Q.** And the photoluminescence quantum yield (in Cc1ccccc1)?
**A.** 0.083

**Q.** And the photoluminescence quantum yield (in c1ccccc1)?
**A.** 0.098

**Q.** With `Cc1ccc(-c2cc(/C=C/c3ccc(N(c4ccccc4)c4ccccc4)cc3)c(C#N)c(N3CCCCC3)c2)cc1` as the molecule, how does the photoluminescence quantum yield (in CS(C)=O) read?
**A.** 0.58

**Q.** With `Cc1ccc(/C=C/c2ccccc2-[n+]2noc([O-])c2-c2ccccc2)cc1` as the molecule, how does the photoluminescence quantum yield (in C1CCCCC1) read?
**A.** 0.0018

**Q.** What about the photoluminescence quantum yield (in CC#N) of the same molecule?
**A.** 0.0048

**Q.** For `c1ccc(-c2nnc(-c3ccc(N4c5ccccc5Oc5ccccc54)cc3)n2-c2ccccc2)cc1`, which photoluminescence quantum yield (in Cc1ccccc1) is on record?
**A.** 0.127

**Q.** With `CCCCCCCCCCCCc1ccc(-c2cc(C)[o+]c(C)c2)cc1` as the molecule, how does the photoluminescence quantum yield (in CC#N) read?
**A.** 0.36

**Q.** And the photoluminescence quantum yield (in ClCCl)?
**A.** 0.37

**Q.** Which photoluminescence quantum yield (in ClCCl) does the source give for `COc1ccc(-c2cnc3cccc(-c4ccccc4)n23)cc1` here?
**A.** 0.26

**Q.** Which photoluminescence quantum yield (in Cc1ccccc1) does the source give for `c1ccc(-c2cc(-c3ccccc3)cc(-c3ccc4c(c3)C3(c5ccccc5-4)c4ccccc4-c4c3c3c5ccccc5c(-c5cc(-c6ccccc6)cc(-c6ccccc6)c5)cc3c3ccccc43)c2)cc1` (stereo unspecified) here?
**A.** 0.87

**Q.** With `CCCCCCc1ccsc1-c1ccc2c(c1)C1=[N+]3C2=Cc2c4ccc(-c5sccc5CCCCCC)cc4c4n2[B-]3(Oc2ccccc21)Oc1ccccc1-4` (stereo unspecified) as the molecule, how does the photoluminescence quantum yield (in C1CCOC1) read?
**A.** 0
